Assay results from patent publication US6617491B2, “Use of drosophila melanogaster as a model for screening psychostimulant plant materials” (Council of Scientific & Industrial Research, priority 2001, dated 2003).

Key:
Sh^5eag^1 mutant flies [1] = assay: Time of recovery from diethyl ether anesthesia in individual fly pairs; assay type: in vivo, Drosophila melanogaster; conditions: NF+PS; PS 1 mg/ml in fly food; 10 fly pairs
Procedure: Standard Drosophila manipulation methods were followed. Cultures were grown on a medium containing maize powder, sugar, yeast and Nipagin. Flies were maintained and further manipulated at room temperature. Experimental conditions were kept identical throughout. The double mutant Sh^5eag^1 was generated using standard methods of Drosophila genetics. Male flies of similar age were used in the experiment. In routine screening, flies were anesthetized in various groups and then allowed to recover in an identical manner. For further testing, individual fly pairs were used as described below. Following different treatments, flies were first anesthetized with diethyl ether and healthy looking individuals shifted to a number of empty vials in such a way that each vial received two flies, one from each treatment. Before shifting, flies from one of the two treatments were marked on their wings for the purpose of identification. Flies were allowed to recover fully. After an hour, each fly pair was subjected to the following test. […]
To understand the above activity, and others, if any, of the Acorus extracts in Drosophila in a quantitative manner, following experiments were carried out using acetone extract as the representative substance. […] First, time of recovery from ether anesthesia was measured in individual flies. […] Following this, recovery time was determined as described earlier. […]

Sh^5eag^1 mutant flies [2] = conditions: from Sharma and Kumar, Ser. No. 09/789,525; cited from earlier work
Sh^5eag^1 mutant flies [3] = assay: Spontaneous locomotor activity in flies, pair-wise visual comparison of vials on a scale of '0', '+' or '−'; assay type: in vivo, Drosophila melanogaster; conditions: baseline NF flies; 73 comparisons; 5th day; 20 flies per vial
Procedure: To further understand the activity profile of the plant material, flies were treated with either NF or NF containing either ethanol alone (NF+ET) or ethanol and extract both (NF+ET+EX). The ethanol concentration used was 20% (v/v). Other details were as described earlier. On 5th day, spontaneous locomotor activity in flies was pair-wise compared either between NF and NF+ET or between NF+ET and NF+ET+EX. Two vials representing the two treatments were kept side by side in an inverted position. There were 20 flies in each vial. The flies' activity in a group was visually estimated on a scale of ‘0’, ‘+’ or ‘−’, as described below. To compare between NF and NF+ET, the sum total of activity seen in the vial containing NF flies was considered ‘0’. The activity in the NF+ET vial was then given a ‘0’, ‘+’ or ‘−’, depending on whether it is equal, more or less than the activity observed in NF vial respectively. The process was repeated 73 times spanning an entire day. In this test, ethanol treated flies received 23 ‘0’s, no ‘+’ and 50 ‘−’s. […] NF+
ET and NF+ET+EX flies were similarly compared, with the activity in the former serving as baseline, i.e., ‘0’. In this test, NF+ET+EX received no ‘0’, 73 ‘+’5 and no ‘−’. […] First, ethanol decreases spontaneous locomotor activity in flies. Second, Acorus extract increases spontaneous locomotor activity in flies treated with ethanol, a CNS depressant drug.
Having observed a stimulant activity of Acorus extract in flies under the influence of alcohol, the question whether the extract also stimulates normal flies, i.e., individuals not under the drug's influence, was asked. To answer this, spontaneous locomotor activity in NF and NF+EX flies were compared, as described above. NF flies' activity served as the baseline. In the test conducted the extract treated flies received 18 ‘0’5 […] and 2 ‘−’s.

Row | Compound | recovery time from ether anesthesia (Sh^5eag^1 mutant flies [1]) [min] | effect on recovery from ether anesthesia in flies (Sh^5eag^1 mutant flies [2]) | spontaneous locomotor activity: number of '0's (times equally active) (Sh^5eag^1 mutant flies [3]) | spontaneous locomotor activity: number of '+'s (times more active) (Sh^5eag^1 mutant flies [3]) | spontaneous locomotor activity: number of '−'s (times less active) (Sh^5eag^1 mutant flies [3])
1 | CCC1(c2ccccc2)C(=O)NC(=O)NC1=O [phenobarbital sodium] | 11.3 ± 2.38 | causes a delay in recovery | – | – | –
2 | CCO [ethanol] | – | – | 23 | no | 50
